Results reported in patent EP2246337A1, “Use of isoxazole derivatives as cyclooxygenase inhibitors” (Universita' degli Studi di Bari, priority 2004, dated 2005).
pIC50: −log10 of the molar value. Like-named read-outs stand apart in the source and are kept apart here. Marks after values point to notes of the source that are not given here. Each block holds one compound with its values, some of them ahead of it.

What was measured:
[1] = molecular target: T1, monocyte COX-2 (Homo sapiens, UniProt P35354); assay: COX-2 assay in LPS-stimulated isolated human whole blood (plasma PGE2); type: cell-based; conditions: for pIC50: heparinised isolated human whole blood, LPS 10 micrograms/ml, 24 hours, PGE2, means of at least two experiments
T1 construct: isolated peripheral venous blood samples containing 10 IU of sodium heparin were incubated in the laboratory in the presence of LPS; endogenous in cells; host or cells: monocytes in LPS-stimulated heparinised human whole blood
T1 sequence (P35354 18-604): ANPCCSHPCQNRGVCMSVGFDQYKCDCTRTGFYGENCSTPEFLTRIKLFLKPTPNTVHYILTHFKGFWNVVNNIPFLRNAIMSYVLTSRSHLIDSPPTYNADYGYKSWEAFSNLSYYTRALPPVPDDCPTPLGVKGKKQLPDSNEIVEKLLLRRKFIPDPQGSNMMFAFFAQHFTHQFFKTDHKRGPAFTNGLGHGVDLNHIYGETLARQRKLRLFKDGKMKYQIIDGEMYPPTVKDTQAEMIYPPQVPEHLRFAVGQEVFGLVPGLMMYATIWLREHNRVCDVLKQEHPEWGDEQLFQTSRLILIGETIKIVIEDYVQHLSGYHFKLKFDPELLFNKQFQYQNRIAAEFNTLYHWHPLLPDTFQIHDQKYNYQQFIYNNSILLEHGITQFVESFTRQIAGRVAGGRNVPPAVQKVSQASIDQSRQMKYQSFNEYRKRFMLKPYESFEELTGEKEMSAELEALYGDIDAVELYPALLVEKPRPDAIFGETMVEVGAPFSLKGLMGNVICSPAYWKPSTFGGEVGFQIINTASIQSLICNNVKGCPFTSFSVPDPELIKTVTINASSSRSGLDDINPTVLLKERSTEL

[2] = molecular target: T2, platelet COX-1 (Homo sapiens, UniProt P23219); assay: COX-1 assay in isolated human whole blood allowed to clot (serum TXB2); type: cell-based; conditions: for pIC50: isolated human whole blood clotting 1 hour at 37°C, TXB2, means of at least two experiments
T2 construct: 1 ml aliquots of isolated whole blood were immediately transferred into glass test tubes and kept at a temperature of 37°C; endogenous in cells; host or cells: platelets in human whole blood (healthy volunteers / study subjects)
Description: 11 healthy volunteers (6 females aged between 25 and 29 years) were enrolled to participate in the study after each having given their written approval.
1 ml aliquots of isolated whole blood were immediately transferred into glass test tubes and kept at a temperature of 37°C for 1 hour. The serum was separated by centrifugation (10 min at 3000 rpm) and kept at -70°C until assayed for thromboxane (TX)B2.
From 4 to 9 different concentrations of each compound were incubated with heparinised isolated whole blood samples in the presence of LPS (10 micrograms/ml) for 24 hours or with isolated whole blood samples allowed to clot at 37°C for 1 hour, in order to examine the concentration-dependence of COX-2 vs. COX-1 inhibition, respectively.
The concentrations of PGE2 and TXB2 were measured by radioimmunological assays (Patrono C. et al.. Low dose aspirin and inhibition of thromboxane B2 production in healthy subjects. Thromb. Res. 1980; 17: 317-27; Ciabattoni G. et al. J Endocrinol Invest 1979; 2:173-182). Isolated plasma and serum samples were diluted in the standard diluent of the assay (0.02M phosphate buffer, pH 7.4) and assayed in a volume of 1.5 ml at a final dilution of 1:50-1:30.000. 4000 d.p.m. of [^3H]-PGE2 or [^3H]-TXB2 were used and specific anti-PGE2 and anti-TXB2 antibody diluted 1:100,000 and 1:120,000, respectively. The least detectable concentration was 1-2 pg/ml for both prostanoids.

[3] = tested on: biosynthesis of prostacyclin; assay: Urinary excretion of 2,3-dinor-6-keto-PGF1α (index of systemic prostacyclin biosynthesis in vivo) after rofecoxib; set-up: species or system human; conditions: for percent change from pretreatment at 25 mg: Homo sapiens, 120 h
Description: (§1) The collection of overnight urine samples was obtained to assess the urinary excretion of 11-dehydro-thromboxane B2 and of 2,3-dinor-6-keto-PGF1α before treatment with the drug and after the last dose of rofecoxib.
(§2) Biochim Biophys Acta 1987;918:293-7. […] J Pharmacol Exp Ther 1995;275:94-100).

[4] = molecular target: T3, COX-2 monocyte activity (Homo sapiens, UniProt P35354); assay: in vivo
Description: (§3) Subjects with disturbances of a haemorrhagic nature, allergy to aspirin or to other non-steroidal anti-inflammatory drugs (NSAID) or with a history of gastrointestinal disorders were excluded from the study. The subjects refrained from using aspirin or other non-steroidal anti-inflammatory drugs (NSAID) for at least two weeks prior to the study. The blood samples were taken to determine COX-1 platelet activity and COX-2 monocyte activity before treatment with the drug and 12 hours after the last administration (at 8 a.m. on the sixth day of the study).
(§4) The effects of Rofecoxib on COX-1 platelet activity were assessed (assessing the production of serum TXB2 as described in Patrono et al., Thromb Res 1980;17:317-27) and on COX-2 monocyte activity (measuring the production of PGE2 in whole blood stimulated with LPS, as described in Patrignani et al., J Pharmacol Exp Ther 1994;271:1705-12).

[5] = molecular target: T4, COX-1 platelet activity (Homo sapiens, UniProt P23219); assay: Ex vivo platelet COX-1 activity (serum TXB2) in subjects treated with rofecoxib; conditions: median (range); for Serum Thromboxane B2: rofecoxib 25 mg per day for 5 consecutive days; for COX-1 platelet activity, % of variation vs pretreatment values: 25 mg per day for 5 consecutive days
T4 construct: 1 ml aliquots of isolated whole blood were immediately transferred into glass test tubes and kept at a temperature of 37°C; endogenous in cells; host or cells: platelets in human whole blood (healthy volunteers / study subjects)
Description: as §3, §4

[6] = tested on: biosynthesis of Thromboxane A2; assay: Urinary excretion of 11-dehydro-thromboxane B2 (index of systemic thromboxane A2 biosynthesis in vivo) after rofecoxib; set-up: species or system human; conditions: median (range); for 11-dehydro-thromboxane B2: rofecoxib 25 mg per day for 5 consecutive days, overnight urine; for urinary excretion of 11-dehydro-TXB2, % of pre-drug values: 25 mg per day for 5 days
Description: as §1, §2

[7] = molecular target: T3, COX-2 monocyte activity; conditions: rofecoxib 25 mg per day for 5 consecutive days, median (range)
Description: as §3, §4

T2 sequence (P23219 24-599): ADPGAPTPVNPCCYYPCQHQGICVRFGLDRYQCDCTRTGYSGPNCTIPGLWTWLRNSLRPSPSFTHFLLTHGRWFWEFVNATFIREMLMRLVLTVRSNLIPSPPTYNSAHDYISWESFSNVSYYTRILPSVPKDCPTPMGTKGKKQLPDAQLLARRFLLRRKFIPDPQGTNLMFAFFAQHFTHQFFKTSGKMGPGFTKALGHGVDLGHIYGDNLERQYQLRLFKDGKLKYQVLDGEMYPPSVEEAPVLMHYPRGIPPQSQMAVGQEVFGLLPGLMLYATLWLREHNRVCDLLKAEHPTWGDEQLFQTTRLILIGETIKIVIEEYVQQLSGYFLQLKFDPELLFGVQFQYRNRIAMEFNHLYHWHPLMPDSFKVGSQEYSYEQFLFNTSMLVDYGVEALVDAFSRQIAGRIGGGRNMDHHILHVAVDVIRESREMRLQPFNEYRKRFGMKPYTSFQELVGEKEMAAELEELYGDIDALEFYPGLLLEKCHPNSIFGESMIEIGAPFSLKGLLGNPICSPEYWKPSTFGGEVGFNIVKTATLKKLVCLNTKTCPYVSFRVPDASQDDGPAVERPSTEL
T4 sequence (P23219 24-599): as above

pIC50 [1]: 5.83 | COX-1 inhibition (result in words) [2]: excellent COX-1 inhibitors | pIC50 [2]: 7.30
SMILES: CCc1onc(-c2ccccc2)c1-c1ccccc1 [2g (P9), 3,4-Diphenyl-5-ethylisoxazole]

pIC50 [1]: 5.60 | COX-1 inhibition (result in words) [2]: excellent COX-1 inhibitors | pIC50 [2]: 7.05
SMILES: Cc1onc(-c2ccccc2)c1-c1ccccc1 [2a (P10), 3,4-Diphenyl-5-methylisoxazole]

SMILES: CS(=O)(=O)c1ccc(C2=C(c3ccccc3)C(=O)OC2)cc1 [Rofecoxib]
2,3 dinor-6 keto-prostaglandin F1α ([3]; "Wild-type" TLR4 subjects, rofecoxib 25 mg per day for 5 consecutive days, overnight urine, median (range)): 56.5(38-84)^* pg/mg creatinine | 2,3 dinor-6-keto-prostaglandin F1α ([3]; Carriers of TLR4 Polymorphisms, rofecoxib 25 mg per day for 5 consecutive days, overnight urine, median (range)): 50 (28-93)^* pg/mg creatinine | percent change from pretreatment at 25 mg ([3]; read-out: inhibition of the urinary excretion of 2,3-dinor-6-keto PGF1α, "wild-type" subjects (second value of 'respectively'), 25 mg per day for 5 days, median (range)): -61% | percent change from pretreatment at 25 mg ([3]; read-out: inhibition of the urinary excretion of 2,3-dinor-6-keto PGF1α, carriers of TLR4 polymorphisms (first value of 'respectively'), 25 mg per day for 5 days, median (range)): -64% | inhibition of prostacyclin ([3]; similar in the two groups of patients (carriers of TLR4 polymorphisms and wild-type)): about 60% | inhibition at 25 mg ([4]; read-out: monocyte COX-2 activity ex vivo, % inhibition, carriers of TLR4 polymorphism, 25 mg per day for 5 consecutive days, median (range)): -94% | inhibition at 25 mg ([4]; read-out: monocyte COX-2 activity ex vivo, % inhibition, non carriers of TLR4 polymorphism, 25 mg per day for 5 consecutive days, median (range)): -85% | Serum Thromboxane B2 ([5]; "Wild-type" TLR4 subjects): 233.5 (178-391) ng/ml | Serum Thromboxane B2 ([5]; Carriers of TLR4 Polymorphisms): 225 (94-728) ng/ml | COX-1 platelet activity, % of variation vs pretreatment values ([5]; carriers of TLR4 polymorphism): -11(from 0 to -57) % | COX-1 platelet activity, % of variation vs pretreatment values ([5]; non carriers of TLR4 polymorphism): -10(from 0 to -10) % | 11-dehydro-thromboxane B2 ([6]; "Wild-type" TLR4 subjects): 345 (155-595.6) pg/mg creatinine | urinary excretion of 11-dehydro-TXB2, % of pre-drug values ([6]; "wild-type" subjects): 71 (67-84) % | 11-dehydro-thromboxane B2 ([6]; Carriers of TLR4 Polymorphisms): 329 (158-587)^* pg/mg creatinine | urinary excretion of 11-dehydro-TXB2, % of pre-drug values ([6]; carriers of TLR4 polymorphisms): 174 (136-354) % | Prostaglandin E2 induced by lipopolysaccharide ([7]; "Wild-type" TLR4 subjects): 2.3 (0.3-4.2) ^** ng/ml | Prostaglandin E2 induced by lipopolysaccharide ([7]; Carriers of TLR4 Polymorphisms): 5.3 (1.9-11)^** ng/ml

effect on monocyte COX-2 activity ([1]; at concentrations giving virtually complete suppression of platelet COX-1 activity): do not affect monocyte COX-2 activity | COX-1 inhibition (result in words) [2]: excellent COX-1 inhibitors | suppression of platelet COX-1 activity ([2]; at concentrations that do not affect monocyte COX-2 activity, concentration-response curves): > 90% | pIC50 [2]: 6.30
SMILES: Cc1onc(-c2ccc(Cl)o2)c1-c1ccccc1 [2c (P6), 3-(5-Chloro-2-furyl)-4-phenyl-5-methylisoxazole]
